Measurements published in patent US20240398831A1, “COMPOSITIONS COMPRISING SMALL MOLECULE REGULATORS OF TUMOR IMMUNITY AND METHODS OF USING SAME” (Duke University, priority 2021, published 2024).

Test system: CD68+ monocytes/TAMs
Assay: Single cell RNA sequencing of tumor infiltrating immune cells from iBP tumors
Format: in vivo, mouse
From the text: Single Cell RNA sequencing. iBP tumors (three) were pooled and a single cell suspension was isolated. Live tumor infiltrating immune cells (CD45^+ L/D^−) were isolated by cell sorting and resuspended in PBS+0.04% BSA at a concentration of 1000 cells/μL. In total, 10,000 cells were loaded on the 10× Genomics Chromium Controller Single-Cell Instrument (10× Genomics) mixed with reverse transcription reagents along with gel beads and oil to generate single-cell gel beads in emulsions (GEMs). GEM-RT was performed in an Eppendorf Mastercycler Pro (cat #950030020, Eppendorf): 53° C. for 45 min; 85° C. for 5 min; then held at 4° C. After reverse transcription, GEMs were disrupted and the single-stranded cDNA was purified using Dynabeads MyOne Silane beads (cat #37002D, Thermo Fisher Scientific). cDNA was amplified using the Eppendorf Mastercycler Pro (cat #950030020, Eppendorf): 98° C. for 3 min; cycled 11×: 98° C. for 15 s, 67° C. for 20 s, and 72° C. for 1 min; 72° C. for 1 min; held at 4° C. The amplified cDNA product was purified with the SPRIselect Reagent Kit (0.6×SPRI) (cat #B23318, Beckman Coulter). Indexed sequencing libraries were constructed using the reagents in the Chromium Single-Cell 3′ version 3 Library Kit, following these steps: (1) fragmentation, end repair and A-tailing; (2) SPRIselect cleanup; (3) adapter ligation; (4) post ligation cleanup with SPRIselect; (5) sample index PCR; (6) PostindexPCR cleanup. The barcoded sequencing libraries were analyzed using quantitative PCR (cat #KK4824, KAPA Biosystems Library Quantification Kit for Illumina platforms). Sequencing libraries were transferred to the Duke University Center for Genomic and Computational Biology (GCB) and were loaded on a NovaSeq6000 (Illumina) for sequencing.
scRNA seq data analysis. Sequencing data was de-multiplexed, trimmed, filtered, aligned, and quantified using the Cell Ranger pipeline (10× Genomics). Reads were aligned to CSC mm10 transcriptome and UMI count matrices for each sample was obtained. The Seurat v3.1 package was used to count matrices. For each sample, cells that express <200 or >2000 genes and cells that express >5% of mitochondrial genes were removed. Highly variable genes were identified and used for principal component analysis. Cell subpopulations were identified using the ‘FindNeighbors’ function with first 30 PCs and ‘FindClusters’ function from Seurat R package with default resolution parameters. Cells were then clustered and visualized using uniform manifold approximation and projection (UMAP) (Liu, Int. J. Mol. Sci. 2020, 21, 16). DE Wilcoxon test analysis was used to identify genes that define a cluster using known cell type signatures and genes that differ within clusters between treatments.
Pseudotime Analysis. To infer the developmental trajectories in the monocyte/macrophage lineages, Monocle3 was used to perform the pseudotime analysis where UMAP coordinates from Seurat were used as input (Cao et al., Nature 2019, 566, 498-502). The graphtest function implemented in Monocle3 was used to find genes that vary with pseudotime where genes with q<0.01 were identified as pseudotime-dependent genes. Cells were divided into four pseudotime blocks (e.g., 0-5, 5-10, 10-15, and 15-21) based on their pseudotime estimate.

[1] = CD68+ cells, Genes down-regulated upon E2 treatment
[2] = CD68+ cells, Genes up-regulated upon E2 treatment

## 17β-estradiol [E2]
[1]
  AA467197 avg_logFC: −1.1474
  Actg1 avg_logFC: −0.2725
  Adam8 avg_logFC: −0.5315
  Arg1 avg_logFC: −1.491
  Arl4c avg_logFC: −0.3255
  Ass1 avg_logFC: −0.2981
  B4galt1 avg_logFC: −0.2593
  Bhlhe40 avg_logFC: −0.4214
  Bnip3 avg_logFC: −0.3241
  Cbl avg_logFC: −0.2587
  Ccl24 avg_logFC: −1.196
  Cd44 avg_logFC: −0.3636
  Cd53 avg_logFC: −0.2831
  Cdh1 avg_logFC: −0.4682
  Cish avg_logFC: −0.2878
  Clec7a avg_logFC: −0.6823
  Clic4 avg_logFC: −0.2836
  Cox17 avg_logFC: −0.2516
  Csrnp1 avg_logFC: −0.2796
  Cxcl2 avg_logFC: −0.3108
  Dazap2 avg_logFC: −0.253
  Ddx3x avg_logFC: −0.2648
  Dusp5 avg_logFC: −0.2644
  Emp1 avg_logFC: −0.3016
  Epb41l2 avg_logFC: −0.2668
  Ero1l avg_logFC: −0.3681
  Errfi1 avg_logFC: −0.2612
  Etv3 avg_logFC: −0.2533
  Fam129b avg_logFC: −0.2732
  Gatm avg_logFC: −0.4728
  Gm13339 avg_logFC: −0.3235
  Gm42418 avg_logFC: −0.3099
  Grina avg_logFC: −0.2527
  Havcr2 avg_logFC: −0.2738
  Hbegf avg_logFC: −0.2883
  Hexim1 avg_logFC: −0.2598
  Hif1a avg_logFC: −0.3016
  Hilpda avg_logFC: −0.3818
  Hk2 avg_logFC: −0.3161
  Hnrnpa2b1 avg_logFC: −0.2507
  Hnrnpu avg_logFC: −0.2502
  Id2 avg_logFC: −0.3235
  Ifi202b avg_logFC: −0.4589
  Ighm avg_logFC: −0.2694
  Il1rn avg_logFC: −0.7087
  Itgax avg_logFC: −0.2718
  Jak2 avg_logFC: −0.3294
  Lars2 avg_logFC: −0.2737
  Lcp1 avg_logFC: −0.279
  Lyz1 avg_logFC: −0.3109
  Mafb avg_logFC: −0.2732
  Malt1 avg_logFC: −0.4497
  Mir6236 avg_logFC: −0.4795
  Mmp14 avg_logFC: −0.4234
  N4bp1 avg_logFC: −0.2723
  Nampt avg_logFC: −0.2539
  Nfkb1 avg_logFC: −0.3187
  Pabpc1 avg_logFC: −0.3065
  Plek avg_logFC: −0.3121
  Prkcd avg_logFC: −0.4952
  Ptgs2 avg_logFC: −0.2589
  Qsox1 avg_logFC: −0.2981
  Rbbp6 avg_logFC: −0.2693
  Rbms1 avg_logFC: −0.306
  Rbpj avg_logFC: −0.2858
  Retnla avg_logFC: −1.013
  Rgcc avg_logFC: −0.3356
  Rhob avg_logFC: −0.3443
  Rnf19b avg_logFC: −0.4071
  Rpl23a avg_logFC: −0.3395
  Scd2 avg_logFC: −0.3267
  Sdc4 avg_logFC: −0.5729
  Slc2a1 avg_logFC: −0.2726
  Slc7a2 avg_logFC: −0.4582
  Slc7a11 avg_logFC: −0.3846
  Slpi avg_logFC: −0.3695
  Smox avg_logFC: −0.2743
  Spp1 avg_logFC: −0.5367
  Srgn avg_logFC: −0.3751
  Tapbp avg_logFC: −0.2542
  Tes avg_logFC: −0.2663
  Tgfbi avg_logFC: −0.2874
  Tgm2 avg_logFC: −0.345
  Timp1 avg_logFC: −0.3922
  Ywhaz avg_logFC: −0.3465
  Zeb2 avg_logFC: −0.2704
  Zfp36l2 avg_logFC: −0.2732
[2]
  AF251705 avg_logFC: 0.2639
  Al607873 avg_logFC: 0.2786
  Apoe avg_logFC: 0.569
  Arl5c avg_logFC: 0.2656
  Bst2 avg_logFC: 0.2961
  C1qa avg_logFC: 0.4214
  C1qb avg_logFC: 0.5188
  C1qc avg_logFC: 0.4208
  Ccrl2 avg_logFC: 0.3263
  Cd14 avg_logFC: 0.2715
  Cd48 avg_logFC: 0.2715
  Cfh avg_logFC: 0.2625
  Chil3 avg_logFC: 1.253
  Ckb avg_logFC: 0.2847
  Cst3 avg_logFC: 0.3446
  Dpep2 avg_logFC: 0.3725
  Fcer1g avg_logFC: 0.3137
  Fcrls avg_logFC: 0.5638
  Gdf3 avg_logFC: 0.2851
  Gm10076 avg_logFC: 0.3757
  Gm10222 avg_logFC: 0.2577
  H2-D1 avg_logFC: 0.2808
  Hint1 avg_logFC: 0.2548
  Id3 avg_logFC: 0.2699
  Ifi27l2a avg_logFC: 0.5245
  Ifitrn2 avg_logFC: 0.374
  Ifitrn3 avg_logFC: 0.2755
  Itga6 avg_logFC: 0.3437
  Itm2b avg_logFC: 0.4104
  Lrg1 avg_logFC: 0.3663
  Ly6c2 avg_logFC: 0.2657
  Lyz2 avg_logFC: 0.2885
  Mgl2 avg_logFC: 0.5712
  Mt1 avg_logFC: 0.4006
  Pf4 avg_logFC: 0.4715
  Rgs10 avg_logFC: 0.2599
  Rpl3 avg_logFC: 0.278
  Rpl9 avg_logFC: 0.2585
  Rpl21 avg_logFC: 0.2567
  Rpl29 avg_logFC: 0.2548
  Rplp0 avg_logFC: 0.333
  Rps2 avg_logFC: 0.2742
  Rps11 avg_logFC: 0.2704
  Rps20 avg_logFC: 0.2922
  S100a8 avg_logFC: 0.7858
  Thbs1 avg_logFC: 0.3189
  Trem2 avg_logFC: 0.4831
  Tspo avg_logFC: 0.2604
CD68+ cells, Genes up-regulated upon E2 treatment, first Tmem176 line
  Tmem176 avg_logFC: 0.3209
CD68+ cells, Genes up-regulated upon E2 treatment, second Tmem176 line
  Tmem176 avg_logFC: 0.3394
E2 group
  inflammation/chemokine genes (Itm2b, C1q) and M2 macrophage markers (Tspo, Vegfa, Tgm2) in CD68+ cells: upregulated
E2 treated tumors
  TAM markers (Trem2, Apoe, Thbs1, Spp1) in CD68+ monocyte/TAM population: expressed
E2 vs placebo
  CD68+ monocytes/TAMs clusters: expansion and significant changes in gene expression
  cluster 1 (M1-like TAMs): remained unchanged
  cluster 3 (inflammatory monocytes): increased
  cluster 8: expansion
  cluster 9 (immune-suppressive phenotype): significant expansion
  cluster 15 (M1-like TAMs): decreased
  cluster 16 (patrolling tissue resident monocytes): increased
  cluster 22: remained unchanged
  cluster 30: expansion
  percentage of Ly6C^hi monocytes (cluster 2): remained the same
